Data: the NIST ThermoML archive (doi:10.1016/j.jct.2016.12.020)
Numbers after ± are expanded uncertainties.

Assay: excess molar enthalpy (molar enthalpy of mixing); xn = mol fraction of the nth substance listed
Settings: 100 kPa, Liquid, Calvet calorimetry

[Au] [gold] + [Ga]
excess molar enthalpy [kJ/mol]
Settings | 1223 K | 1323 K
x1 = 0.03042 | -1.258 ± 0.011 | –
x1 = 0.03979 | – | -1.68 ± 0.014
x1 = 0.0642 | -2.624 ± 0.021 | –
x1 = 0.07894 | – | -3.295 ± 0.026
x1 = 0.09685 | -4.072 ± 0.032 | –
x1 = 0.116 | – | -4.808 ± 0.038
x1 = 0.1281 | -5.474 ± 0.043 | –
x1 = 0.1512 | – | -6.244 ± 0.049
x1 = 0.1606 | -6.786 ± 0.053 | –
x1 = 0.1843 | – | -7.508 ± 0.059
x1 = 0.1915 | -7.979 ± 0.063 | –
x1 = 0.2172 | – | -8.724 ± 0.068
x1 = 0.2205 | -8.949 ± 0.07 | –
x1 = 0.2492 | -9.917 ± 0.078 | -9.898 ± 0.077
x1 = 0.2762 | -10.83 ± 0.085 | –
x1 = 0.2785 | – | -10.86 ± 0.085
x1 = 0.3018 | -11.66 ± 0.091 | –
x1 = 0.3074 | – | -11.79 ± 0.092
x1 = 0.3274 | -12.47 ± 0.097 | –
x1 = 0.3345 | – | -12.61 ± 0.098
x1 = 0.3516 | -13.19 ± 0.1 | –
x1 = 0.3597 | – | -13.3 ± 0.1
x1 = 0.3741 | -13.79 ± 0.11 | –
x1 = 0.3836 | – | -13.89 ± 0.11
x1 = 0.3958 | -14.24 ± 0.11 | –
x1 = 0.4061 | – | -14.36 ± 0.12
x1 = 0.4164 | -14.68 ± 0.12 | –
x1 = 0.4283 | – | -14.77 ± 0.12
x1 = 0.4363 | -15.01 ± 0.12 | –
x1 = 0.449 | – | -15.12 ± 0.13
x1 = 0.4553 | -15.33 ± 0.13 | –
x1 = 0.4692 | – | -15.46 ± 0.14
x1 = 0.4737 | -15.62 ± 0.13 | –
x1 = 0.4871 | -15.83 ± 0.14 | –
x1 = 0.4882 | – | -15.7 ± 0.15
x1 = 0.4991 | – | -15.88 ± 0.15
x1 = 0.5003 | -15.96 ± 0.14 | –
x1 = 0.5096 | – | -16 ± 0.16
x1 = 0.5139 | -16.01 ± 0.15 | –
x1 = 0.5203 | – | -16.1 ± 0.17
x1 = 0.527 | -16.06 ± 0.16 | –
x1 = 0.5307 | – | -16.2 ± 0.17
x1 = 0.5395 | -16.11 ± 0.16 | –
x1 = 0.5412 | – | -16.2 ± 0.18
x1 = 0.5514 | – | -16.3 ± 0.19
x1 = 0.5515 | -16.2 ± 0.17 | –
x1 = 0.5621 | – | -16.3 ± 0.19
x1 = 0.5631 | -16.2 ± 0.17 | –
x1 = 0.5727 | – | -16.3 ± 0.2
x1 = 0.5743 | -16.2 ± 0.18 | –
x1 = 0.5829 | – | -16.3 ± 0.21
x1 = 0.585 | -16.2 ± 0.19 | –
x1 = 0.5927 | – | -16.3 ± 0.22
x1 = 0.5953 | -16.2 ± 0.2 | –
x1 = 0.6028 | – | -16.2 ± 0.23
x1 = 0.6053 | -16.2 ± 0.2 | –
x1 = 0.6129 | – | -16.2 ± 0.23
x1 = 0.6147 | -16.2 ± 0.21 | –
x1 = 0.6231 | – | -16.1 ± 0.24
x1 = 0.6239 | -16.2 ± 0.22 | –
x1 = 0.6306 | -16.2 ± 0.22 | –
x1 = 0.637 | -16.1 ± 0.23 | –
x1 = 0.6431 | -16 ± 0.23 | –

[Ag] [silver] + [Ga]
Settings | excess molar enthalpy [kJ/mol]
1223 K, x1 = 0.04915 | 0.215 ± 0.03
1223 K, x1 = 0.0956 | 0.259 ± 0.054
1223 K, x1 = 0.1383 | 0.305 ± 0.078
1223 K, x1 = 0.1792 | 0.285 ± 0.1
1223 K, x1 = 0.2178 | 0.263 ± 0.12
1223 K, x1 = 0.2552 | 0.126 ± 0.14
1223 K, x1 = 0.2905 | -0.009
1223 K, x1 = 0.3228 | -0.21 ± 0.17
1223 K, x1 = 0.3528 | -0.401 ± 0.18
1223 K, x1 = 0.3809 | -0.585 ± 0.19
1223 K, x1 = 0.4081 | -0.807 ± 0.21
1223 K, x1 = 0.4336 | -1.05 ± 0.22
1223 K, x1 = 0.4572 | -1.29 ± 0.22
1223 K, x1 = 0.4789 | -1.45 ± 0.23
1223 K, x1 = 0.4992 | -1.63 ± 0.24
1223 K, x1 = 0.5189 | -1.87 ± 0.25
1223 K, x1 = 0.5372 | -2.07 ± 0.26
1223 K, x1 = 0.5548 | -2.24 ± 0.27
1223 K, x1 = 0.5712 | -2.4 ± 0.27
1323 K, x1 = 0.05283 | 0.223 ± 0.032
1323 K, x1 = 0.1006 | 0.415 ± 0.06
1323 K, x1 = 0.1464 | 0.469 ± 0.086
1323 K, x1 = 0.1894 | 0.449 ± 0.11
1323 K, x1 = 0.2288 | 0.409 ± 0.13
1323 K, x1 = 0.2649 | 0.354 ± 0.15
1323 K, x1 = 0.2996 | 0.217 ± 0.17
1323 K, x1 = 0.3321 | 0.025 ± 0.18
1323 K, x1 = 0.3634 | -0.217 ± 0.2
1323 K, x1 = 0.3921 | -0.397 ± 0.21
1323 K, x1 = 0.4189 | -0.602 ± 0.22
1323 K, x1 = 0.4443 | -0.828 ± 0.23
1323 K, x1 = 0.4687 | -0.949 ± 0.24
1323 K, x1 = 0.4964 | -1.15 ± 0.26
1323 K, x1 = 0.5168 | -1.31 ± 0.26
1323 K, x1 = 0.5359 | -1.44 ± 0.27
1323 K, x1 = 0.5558 | -1.61 ± 0.28
